Test results reported in article PMC6333442, “Conserved allosteric pathways for activation of TRPV3 revealed through engineering vanilloid-sensitivity” (eLife, 2019).

Legend:
[1] = target: T1, mouse TRPV3-4M (F522S/L557M/A560T/Q580E) (Mus musculus, UniProt Q8K424, A560T/F522S/L557M/Q580E); test: Two-electrode voltage clamp, TRPV3-4M in oocytes; type: cell-based; settings: RTx 100 nM, 2-APB 3 mM, room temperature, ±60 mV
T1 construct: expressed in transfected cells; host or cells: Xenopus laevis oocytes
T1 sequence (Q8K424 1-791 F522S/L557M/A560T/Q580E): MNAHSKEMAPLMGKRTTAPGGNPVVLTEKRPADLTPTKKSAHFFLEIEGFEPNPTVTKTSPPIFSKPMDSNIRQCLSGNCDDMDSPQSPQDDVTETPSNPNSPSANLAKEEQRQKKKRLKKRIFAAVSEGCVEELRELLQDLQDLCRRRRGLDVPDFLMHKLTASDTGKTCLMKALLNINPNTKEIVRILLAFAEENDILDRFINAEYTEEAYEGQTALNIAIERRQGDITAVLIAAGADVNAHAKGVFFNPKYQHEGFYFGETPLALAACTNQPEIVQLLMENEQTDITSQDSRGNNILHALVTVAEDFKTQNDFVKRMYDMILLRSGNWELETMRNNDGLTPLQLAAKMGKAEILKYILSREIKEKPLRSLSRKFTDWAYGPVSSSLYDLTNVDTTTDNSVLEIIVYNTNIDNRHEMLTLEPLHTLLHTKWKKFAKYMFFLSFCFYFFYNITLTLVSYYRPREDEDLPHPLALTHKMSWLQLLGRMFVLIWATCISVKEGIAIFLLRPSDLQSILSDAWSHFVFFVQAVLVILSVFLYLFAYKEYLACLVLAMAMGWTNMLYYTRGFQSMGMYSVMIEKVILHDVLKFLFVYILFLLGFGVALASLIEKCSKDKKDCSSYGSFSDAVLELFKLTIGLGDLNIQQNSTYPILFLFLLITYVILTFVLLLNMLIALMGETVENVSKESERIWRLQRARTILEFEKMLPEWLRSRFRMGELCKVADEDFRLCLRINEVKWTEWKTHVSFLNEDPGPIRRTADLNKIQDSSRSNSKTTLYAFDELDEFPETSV
Procedure: (§1) All channel constructs were expressed in Xenopus laevis oocytes and studied using the two-electrode voltage clamp technique (TEVC) following 1–4 days of incubation after cRNA injection. The animal care and experimental procedures were performed in accordance with the Guide for the Care and Use of Laboratory Animals and were approved by the Animal Care and Use Committee of the National Institute of Neurological Disorders and Stroke (Animal protocol number 1253–17). Oocytes were removed surgically and incubated with agitation for 1 hr in a solution containing (in mM) 82.5 NaCl, 2.5 KCl, 1 MgCl2, 5 HEPES, pH 7.6 (with NaOH), and collagenase (2 mg/ml; Worthington Biochemical, Lakewood, NJ). Defolliculated oocytes were injected with cRNA for each of the constructs and incubated at 17°C in a solution containing (in mM) 96 NaCl, 2 KCl, 1 MgCl2, 1.8 CaCl2, 5 HEPES, pH 7.6 (with NaOH), and gentamicin (50 μg/ml, GIBCO-BRL, Gaithersburg, MD). Oocyte membrane voltage was controlled using an OC-725C oocyte clamp (Warner Instruments, Hamden, CT). Data were filtered at 1–3 kHz and digitized at 20 kHz using pClamp software (Molecular Devices, Sunnyvale, CA) and a Digidata 1440A digitizer (Axon Instruments). Microelectrode resistances were 0.1–1 MΩ when filled with 3 M KCl. For recording TRP channel currents, the external recording solution contained (in mM) 100 KCl, 10 HEPES, pH 7.6 (with KOH). […]

[2] = system: TRPV3-6M + L596V, L599F, S613K, D618P, S620E, I644F, Q646E, P651K, L653V, I659L or T660A; test: Two-electrode voltage clamp, TRPV3-6M with individual pore mutations (no RTx response); type: cell-based, mouse; settings: RTx 100 nM, 2-APB 3 mM, room temperature
Procedure: as §1

[3] = target: T2, rat TRPV2-4M (Rattus norvegicus, UniProt Q9WUD2, F472S/L507M/L510T/Q530E); test: Two-electrode voltage clamp, TRPV2-4M in oocytes; type: cell-based; settings: RTx 100 nM, room temperature, ±60 mV
T2 construct: expressed in transfected cells; host or cells: Xenopus laevis oocytes
T2 sequence (Q9WUD2 1-761 F472S/L507M/L510T/Q530E): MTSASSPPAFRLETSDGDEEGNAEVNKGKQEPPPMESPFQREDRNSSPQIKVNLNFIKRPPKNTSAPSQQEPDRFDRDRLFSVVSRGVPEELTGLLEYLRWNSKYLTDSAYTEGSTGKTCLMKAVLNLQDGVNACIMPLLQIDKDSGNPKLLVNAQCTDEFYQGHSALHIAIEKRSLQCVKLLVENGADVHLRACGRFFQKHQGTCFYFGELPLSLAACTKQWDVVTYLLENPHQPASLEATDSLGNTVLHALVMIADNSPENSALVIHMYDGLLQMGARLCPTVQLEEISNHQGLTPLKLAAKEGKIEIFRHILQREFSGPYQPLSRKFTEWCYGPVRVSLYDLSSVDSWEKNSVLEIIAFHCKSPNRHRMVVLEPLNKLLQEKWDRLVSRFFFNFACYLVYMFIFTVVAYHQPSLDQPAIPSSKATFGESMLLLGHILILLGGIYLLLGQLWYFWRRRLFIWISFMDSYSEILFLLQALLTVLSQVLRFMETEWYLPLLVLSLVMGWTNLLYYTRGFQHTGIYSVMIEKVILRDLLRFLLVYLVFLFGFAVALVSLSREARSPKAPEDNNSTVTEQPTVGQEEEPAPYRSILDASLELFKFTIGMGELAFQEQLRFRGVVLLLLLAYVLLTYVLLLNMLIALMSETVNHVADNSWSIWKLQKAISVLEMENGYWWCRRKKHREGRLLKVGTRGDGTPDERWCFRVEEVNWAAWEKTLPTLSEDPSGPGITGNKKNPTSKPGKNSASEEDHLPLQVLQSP
Procedure: as §1

SMILES	channel activation (current response) [1]	channel activation (current response) [2]	channel activation (current response) [3]
NCCOB(c1ccccc1)c1ccccc1 [2-APB, 2-aminoethoxydiphenyl borate]	activated	still activated	–
C=C(C)[C@]12C[C@@H](C)[C@@]34O[C@](Cc5ccccc5)(O[C@@H]1[C@@H]3C=C(COC(=O)Cc1ccc(O)c(OC)c1)C[C@]1(O)C(=O)C(C)=C[C@@H]41)O2 [RTx, resiniferatoxin]	not by 100 nM RTx	RTx-insensitive	robust responses
